Results reported in the kinase profiling compilation of Christmann-Franck et al. (2016).

Columns and labels:
Experiment in all cases: KINOMEscan competition binding
Conditions in all cases: compound 10.0 µM
[1] = target: AKT2 (human) (UniProt P31751)
[2] = target: AURKB (human) (UniProt Q96GD4)
[3] = target: BMPR2 (human) (UniProt Q13873)
[4] = target: CAMK2G (human) (UniProt Q13555)
[5] = target: CDK19 (human) (UniProt Q9BWU1)
[6] = target: CSK (human) (UniProt P41240)
[7] = target: CSNK2A2 (human) (UniProt P19784)
[8] = target: DCLK1 (human) (UniProt O15075)
[9] = target: FLT3 (human) (UniProt P36888)
[10] = target: FRK (human) (UniProt P42685)
[11] = target: GSK3B (human) (UniProt P49841)
[12] = target: IKBKB (human) (UniProt O14920)
[13] = target: INSRR (human) (UniProt P14616)
[14] = target: KDR (human) (UniProt P35968)
[15] = target: LTK (human) (UniProt P29376)
[16] = target: MAP2K3 (human) (UniProt P46734)
[17] = target: MAPK1 (human) (UniProt P28482)
[18] = target: MAPK4 (human) (UniProt P31152)
[19] = target: MAPKAPK2 (human) (UniProt P49137)
[20] = target: MAPKAPK5 (human) (UniProt Q8IW41)
[21] = target: MARK3 (human) (UniProt P27448)
[22] = target: MKNK2 (human) (UniProt Q9HBH9)
[23] = target: MUSK (human) (UniProt O15146)
[24] = target: MYLK2 (human) (UniProt Q9H1R3)
[25] = target: NEK2 (human) (UniProt P51955)
[26] = target: NTRK1 (human) (UniProt P04629)
[27] = target: PAK3 (human) (UniProt O75914)
[28] = target: PAK6 (human) (UniProt Q9NQU5)
[29] = target: PIM1 (human) (UniProt P11309)
[30] = target: PIM2 (human) (UniProt Q9P1W9)
[31] = target: PRKCD (human) (UniProt Q05655)
[32] = target: PRKD1 (human) (UniProt Q15139)
[33] = target: RIPK2 (human) (UniProt O43353)
[34] = target: ROCK2 (human) (UniProt O75116)
[35] = target: ROS1 (human) (UniProt P08922)
[36] = target: SIK1 (human) (UniProt P57059)
[37] = target: SRPK2 (human) (UniProt P78362)
[38] = target: TAOK3 (human) (UniProt Q9H2K8)
[39] = target: TTK (human) (UniProt P33981)
[40] = target: ULK2 (human) (UniProt Q8IYT8)
[41] = target: PIK3CB (human) (UniProt P42338)

ROS1 (human), sequence (P08922 whole entry, looked up): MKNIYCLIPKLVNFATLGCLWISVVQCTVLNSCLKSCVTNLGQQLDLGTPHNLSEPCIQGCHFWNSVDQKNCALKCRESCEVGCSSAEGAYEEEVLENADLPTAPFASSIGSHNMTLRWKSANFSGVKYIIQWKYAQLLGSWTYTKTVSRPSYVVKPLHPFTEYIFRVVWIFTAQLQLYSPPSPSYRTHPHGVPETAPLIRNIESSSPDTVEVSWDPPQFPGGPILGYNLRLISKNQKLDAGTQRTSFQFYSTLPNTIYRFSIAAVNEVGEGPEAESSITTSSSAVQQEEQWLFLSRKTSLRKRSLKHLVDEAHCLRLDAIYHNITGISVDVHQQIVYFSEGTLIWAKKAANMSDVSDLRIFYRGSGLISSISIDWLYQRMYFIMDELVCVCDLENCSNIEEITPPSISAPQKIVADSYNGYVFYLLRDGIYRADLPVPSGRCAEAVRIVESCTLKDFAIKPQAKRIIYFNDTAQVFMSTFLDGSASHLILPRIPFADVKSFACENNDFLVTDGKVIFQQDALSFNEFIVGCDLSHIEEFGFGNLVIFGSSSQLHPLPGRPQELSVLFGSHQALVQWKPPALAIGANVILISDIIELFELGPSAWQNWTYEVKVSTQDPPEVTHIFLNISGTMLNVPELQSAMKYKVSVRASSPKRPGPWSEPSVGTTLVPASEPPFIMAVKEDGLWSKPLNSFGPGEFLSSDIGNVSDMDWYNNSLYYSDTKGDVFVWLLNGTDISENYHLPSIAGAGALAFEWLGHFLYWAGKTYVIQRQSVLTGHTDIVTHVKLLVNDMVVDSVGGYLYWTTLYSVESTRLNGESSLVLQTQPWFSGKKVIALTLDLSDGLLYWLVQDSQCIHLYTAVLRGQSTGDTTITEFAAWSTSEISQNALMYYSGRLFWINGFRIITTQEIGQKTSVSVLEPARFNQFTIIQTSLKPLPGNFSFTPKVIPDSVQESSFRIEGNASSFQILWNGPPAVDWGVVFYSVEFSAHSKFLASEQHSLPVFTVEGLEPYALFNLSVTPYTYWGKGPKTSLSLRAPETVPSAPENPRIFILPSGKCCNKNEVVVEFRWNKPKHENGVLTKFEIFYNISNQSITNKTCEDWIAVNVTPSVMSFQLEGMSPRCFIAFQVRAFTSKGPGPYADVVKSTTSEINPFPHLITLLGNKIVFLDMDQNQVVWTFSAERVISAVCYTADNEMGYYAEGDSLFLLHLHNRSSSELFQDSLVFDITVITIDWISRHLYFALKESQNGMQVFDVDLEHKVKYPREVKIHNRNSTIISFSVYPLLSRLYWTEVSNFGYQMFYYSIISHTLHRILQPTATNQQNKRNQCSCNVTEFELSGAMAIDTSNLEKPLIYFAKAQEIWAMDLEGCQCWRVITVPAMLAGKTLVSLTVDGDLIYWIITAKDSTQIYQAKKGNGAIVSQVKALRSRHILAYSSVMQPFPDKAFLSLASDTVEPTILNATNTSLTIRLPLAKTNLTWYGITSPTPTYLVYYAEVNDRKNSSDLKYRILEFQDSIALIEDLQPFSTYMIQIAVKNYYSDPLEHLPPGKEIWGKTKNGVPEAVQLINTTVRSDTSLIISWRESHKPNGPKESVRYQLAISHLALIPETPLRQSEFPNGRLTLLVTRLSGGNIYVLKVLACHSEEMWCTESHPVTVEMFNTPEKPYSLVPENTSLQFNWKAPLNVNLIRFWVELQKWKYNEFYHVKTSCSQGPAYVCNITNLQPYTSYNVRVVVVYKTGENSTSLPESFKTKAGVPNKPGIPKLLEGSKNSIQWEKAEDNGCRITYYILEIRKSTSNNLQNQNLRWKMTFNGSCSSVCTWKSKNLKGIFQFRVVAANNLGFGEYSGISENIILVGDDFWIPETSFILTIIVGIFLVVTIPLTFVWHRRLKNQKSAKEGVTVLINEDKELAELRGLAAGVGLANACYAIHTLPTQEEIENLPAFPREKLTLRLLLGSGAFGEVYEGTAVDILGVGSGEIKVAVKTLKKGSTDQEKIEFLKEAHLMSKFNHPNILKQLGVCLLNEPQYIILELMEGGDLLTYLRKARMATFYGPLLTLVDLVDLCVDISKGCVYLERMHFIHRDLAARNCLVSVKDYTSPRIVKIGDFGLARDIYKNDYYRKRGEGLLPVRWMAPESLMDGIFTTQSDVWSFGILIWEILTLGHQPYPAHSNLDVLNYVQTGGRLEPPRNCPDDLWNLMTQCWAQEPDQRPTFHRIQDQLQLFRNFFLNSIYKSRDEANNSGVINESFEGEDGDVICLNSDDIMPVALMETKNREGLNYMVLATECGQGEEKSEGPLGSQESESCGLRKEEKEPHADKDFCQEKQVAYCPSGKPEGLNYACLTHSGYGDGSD
SRPK2 (human), sequence (P78362 whole entry, looked up): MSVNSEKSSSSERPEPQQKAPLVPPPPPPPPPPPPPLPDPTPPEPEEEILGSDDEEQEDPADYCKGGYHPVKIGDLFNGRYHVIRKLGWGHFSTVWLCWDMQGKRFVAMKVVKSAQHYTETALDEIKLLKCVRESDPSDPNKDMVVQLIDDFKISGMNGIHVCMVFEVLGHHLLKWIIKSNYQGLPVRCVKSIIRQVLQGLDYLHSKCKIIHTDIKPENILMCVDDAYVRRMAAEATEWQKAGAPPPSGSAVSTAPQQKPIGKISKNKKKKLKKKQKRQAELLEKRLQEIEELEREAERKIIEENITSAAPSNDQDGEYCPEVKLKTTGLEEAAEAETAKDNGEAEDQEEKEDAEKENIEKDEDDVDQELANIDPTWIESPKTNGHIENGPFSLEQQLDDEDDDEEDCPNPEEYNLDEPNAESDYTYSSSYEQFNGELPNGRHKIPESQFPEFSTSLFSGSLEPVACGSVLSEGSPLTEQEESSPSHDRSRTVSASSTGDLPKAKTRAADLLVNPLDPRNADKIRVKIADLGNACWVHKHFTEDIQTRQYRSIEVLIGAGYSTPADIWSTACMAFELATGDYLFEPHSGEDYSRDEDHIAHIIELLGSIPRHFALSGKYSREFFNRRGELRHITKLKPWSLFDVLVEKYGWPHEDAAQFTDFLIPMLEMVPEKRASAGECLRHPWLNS
PRKD1 (human), sequence (Q15139 whole entry, looked up): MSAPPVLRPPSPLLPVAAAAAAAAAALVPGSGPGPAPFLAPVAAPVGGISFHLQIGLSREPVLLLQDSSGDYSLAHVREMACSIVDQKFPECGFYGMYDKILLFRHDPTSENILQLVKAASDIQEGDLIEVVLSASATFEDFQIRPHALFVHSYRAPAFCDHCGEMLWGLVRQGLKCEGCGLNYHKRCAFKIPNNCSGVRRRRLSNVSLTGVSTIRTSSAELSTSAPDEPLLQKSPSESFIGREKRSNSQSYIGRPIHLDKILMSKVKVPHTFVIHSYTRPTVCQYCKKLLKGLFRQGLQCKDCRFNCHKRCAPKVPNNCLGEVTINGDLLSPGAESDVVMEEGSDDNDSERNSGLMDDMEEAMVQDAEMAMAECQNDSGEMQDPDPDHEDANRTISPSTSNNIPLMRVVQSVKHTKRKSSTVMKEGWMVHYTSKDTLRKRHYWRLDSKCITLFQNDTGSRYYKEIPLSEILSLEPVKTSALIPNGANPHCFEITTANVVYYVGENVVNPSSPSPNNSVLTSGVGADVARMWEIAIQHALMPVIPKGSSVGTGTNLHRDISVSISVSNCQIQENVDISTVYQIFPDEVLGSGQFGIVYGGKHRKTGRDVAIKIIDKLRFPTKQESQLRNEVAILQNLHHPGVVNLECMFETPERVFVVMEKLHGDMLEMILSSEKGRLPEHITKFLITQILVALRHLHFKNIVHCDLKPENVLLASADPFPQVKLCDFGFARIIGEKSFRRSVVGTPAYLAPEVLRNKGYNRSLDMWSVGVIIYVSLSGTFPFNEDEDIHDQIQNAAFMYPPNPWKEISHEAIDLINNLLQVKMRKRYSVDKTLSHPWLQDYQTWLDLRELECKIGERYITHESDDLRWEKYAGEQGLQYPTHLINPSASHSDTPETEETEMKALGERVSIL
RIPK2 (human), sequence (O43353 whole entry, looked up): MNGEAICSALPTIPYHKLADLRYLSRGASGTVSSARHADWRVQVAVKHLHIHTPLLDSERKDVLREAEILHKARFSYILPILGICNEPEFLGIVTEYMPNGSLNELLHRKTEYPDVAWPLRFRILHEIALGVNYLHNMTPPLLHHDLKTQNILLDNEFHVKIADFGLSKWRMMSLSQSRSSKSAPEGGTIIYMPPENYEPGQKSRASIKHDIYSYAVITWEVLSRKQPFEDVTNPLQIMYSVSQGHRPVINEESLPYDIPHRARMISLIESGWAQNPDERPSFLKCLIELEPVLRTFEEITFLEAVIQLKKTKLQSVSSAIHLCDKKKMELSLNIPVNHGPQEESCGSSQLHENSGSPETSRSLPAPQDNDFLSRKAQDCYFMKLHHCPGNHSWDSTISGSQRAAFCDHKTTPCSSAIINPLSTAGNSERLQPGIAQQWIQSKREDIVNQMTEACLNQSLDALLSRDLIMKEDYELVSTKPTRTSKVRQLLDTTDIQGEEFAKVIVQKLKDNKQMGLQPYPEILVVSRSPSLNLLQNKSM
MAPKAPK5 (human), sequence (Q8IW41 whole entry, looked up): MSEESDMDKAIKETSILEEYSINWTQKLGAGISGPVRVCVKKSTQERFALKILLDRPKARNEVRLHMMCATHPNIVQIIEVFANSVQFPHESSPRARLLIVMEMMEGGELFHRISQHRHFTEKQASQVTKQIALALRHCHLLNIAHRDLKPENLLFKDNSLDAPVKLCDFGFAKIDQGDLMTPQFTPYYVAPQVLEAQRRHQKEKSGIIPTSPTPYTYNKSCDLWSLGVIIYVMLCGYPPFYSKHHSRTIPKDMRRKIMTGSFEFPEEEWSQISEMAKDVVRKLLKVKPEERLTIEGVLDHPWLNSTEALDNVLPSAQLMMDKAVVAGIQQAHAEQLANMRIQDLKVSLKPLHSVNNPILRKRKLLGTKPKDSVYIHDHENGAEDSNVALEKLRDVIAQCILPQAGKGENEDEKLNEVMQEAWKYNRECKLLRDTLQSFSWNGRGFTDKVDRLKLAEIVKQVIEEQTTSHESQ

Row | SMILES | kinase still bound, per cent of control [1] [%] | kinase still bound, per cent of control [2] [%] | kinase still bound, per cent of control [3] [%] | kinase still bound, per cent of control [4] [%] | kinase still bound, per cent of control [5] [%] | kinase still bound, per cent of control [6] [%] | kinase still bound, per cent of control [7] [%] | kinase still bound, per cent of control [8] [%] | kinase still bound, per cent of control [9] [%] | kinase still bound, per cent of control [10] [%] | kinase still bound, per cent of control [11] [%] | kinase still bound, per cent of control [12] [%] | kinase still bound, per cent of control [13] [%] | kinase still bound, per cent of control [14] [%] | kinase still bound, per cent of control [15] [%] | kinase still bound, per cent of control [16] [%] | kinase still bound, per cent of control [17] [%] | kinase still bound, per cent of control [18] [%] | kinase still bound, per cent of control [19] [%] | kinase still bound, per cent of control [20] [%] | also measured
1 | Cc1cc([C@@H](C)Nc2ccccc2C(=O)O)c2nc(N3CCOCC3)cc(=O)n2c1 | 86 | 96 | 85 | 98 | 91 | 100 | 100 | 78 | 13 | 83 | 100 | 90 | 100 | 100 | 95 | 100 | 100 | 98 | 66 | 100 | kinase still bound, per cent of control [21]: 89%; kinase still bound, per cent of control [22]: 92%; kinase still bound, per cent of control [23]: 100%; kinase still bound, per cent of control [24]: 100%; kinase still bound, per cent of control [25]: 71%; kinase still bound, per cent of control [26]: 88%; kinase still bound, per cent of control [27]: 98%; kinase still bound, per cent of control [28]: 93%; kinase still bound, per cent of control [29]: 100%; kinase still bound, per cent of control [30]: 70%; kinase still bound, per cent of control [31]: 82%; kinase still bound, per cent of control [32]: 89%; kinase still bound, per cent of control [33]: 94%; kinase still bound, per cent of control [34]: 91%; kinase still bound, per cent of control [35]: 100%; kinase still bound, per cent of control [36]: 100%; kinase still bound, per cent of control [37]: 85%; kinase still bound, per cent of control [38]: 100%; kinase still bound, per cent of control [39]: 100%; kinase still bound, per cent of control [40]: 100%
2 | C[C@@H](Oc1cc(-n2cnc3ccc(CN4CCN(C)CC4)cc32)sc1C(N)=O)c1ccccc1C(F)(F)F | 100 | 80 | 97 | 15 | 100 | 100 | 4.6 | 40 | 11 | 100 | 100 | 74 | 100 | 100 | 100 | 52 | 100 | 100 | 100 | 89 | kinase still bound, per cent of control [21]: 63%; kinase still bound, per cent of control [22]: 23%; kinase still bound, per cent of control [23]: 100%; kinase still bound, per cent of control [24]: 61%; kinase still bound, per cent of control [25]: 2.4%; kinase still bound, per cent of control [26]: 74%; kinase still bound, per cent of control [27]: 96%; kinase still bound, per cent of control [28]: 98%; kinase still bound, per cent of control [41]: 0.8%; kinase still bound, per cent of control [29]: 3%; kinase still bound, per cent of control [30]: 77%; kinase still bound, per cent of control [31]: 22%; kinase still bound, per cent of control [32]: 20%; kinase still bound, per cent of control [33]: 92%; kinase still bound, per cent of control [34]: 16%; kinase still bound, per cent of control [35]: 84%; kinase still bound, per cent of control [36]: 78%; kinase still bound, per cent of control [37]: 59%; kinase still bound, per cent of control [39]: 95%
